“And” between values parts separate entries of the source, which are not always exact repeats. Equal values may be shown once. Read-outs that look alike come from different tables or passages of the source. One block for each compound: values may come before it.
Columns and labels:
[1] = Biosafety (cytotoxicity) evaluation on H9c2 cells (MTT); assay type: cell-based, rat; details: rat, H9c2 cells; H9c2, 50 μM, MTT; read-out: cell viability
Protocol: (§1) Compounds DG-13 and DG-15 dissolved in DMSO were added to each well with required concentrations (3.125, 6.25, 12.5, 25, 50 µM). Then the control group were treated with the same volume of medium. The non-administered group were not treated (no cells and no medium). Then the sterile plates were further incubated for 4 h, following MTT addition. After 4 h, supernatant liquor was removed into the waste and all of the wells were then placed into the fresh DMSO (0.15 mL). The absorbance was measured using BIORAD 550 spectrophotometer with the emission wavelengths of 490 nm. Each data was measured three times in parallel survival fraction of cells, calculated by the equation: [OD490 (Drug group) − OD490 (non-administered group)]/[OD490 (Control group) − OD490 (non-administered group)] ×100%.

[2] = test system: H9c2 cells; experiment: as above; assay type: cell-based, rat; details: for cytotoxicity (in words): H9c2, 3.125-50 μM
Protocol: as §1

[3] = test system: SH-SY5Y cells; details: for EC50: read-out: EC50 (neuroprotection), SH-SY5Y damaged by TBHP, 24 h, MTT, n = 3
[4] = test system: chorioallantoic membrane; experiment: Angiogenesis in chorioallantoic membrane (CAM) model; assay type: in vivo, chicken; details: new vessels inner diameter < 100 μm
Protocol: The CAM was examined as a predictive model for the angiogenic activity studies of compounds DG-15. The wide end of the fresh fertilized egg was placed upward in an incubator at 37 °C with a relative humidity of 60%. All the eggs were turned every two hours to prevent from sticking to each other. Compound DG-15 was dissolved with acetone at a concentration of 1 mg/mL and 4 mg/mL and then 5 µL solution was transferred to gelatin sponge using a pipette respectively. The sham treatment group was added to the same volume of saline. Disinfected with UV lamp for 30 min. After 7 days, the broader said of eggs was disinfected with 70% alcohol, then a 30-mm-diameter window was carefully opened in the shell to reduce the chamber pressure before removed the upper shell membrane with tweezers. In addition, the non-fertilized oocytes and unhealthy developed embryos were thrown away. Then the gelatin sponge was embedded into the allantoic membrane and the window was sealed with adhesive tape, with the eggs being returned to the incubator. The eggs were then incubated 3 days after administration, fixed with methanol-acetone (1:1) for 10 min and repeated four times. […] The vascular growth was analyzed with a dissecting microscope and counted by software of Image Professional Plus 5.0 software (Media Cybernetics, Inc, MD, USA)

[5] = test system: SH-SY5Y cells; experiment: Morphological observation of TBHP-damaged SH-SY5Y cells by Giemsa and DAPI staining; assay type: cell-based, human; details: TBHP-damaged SH-SY5Y, 10, 20, 40 μM
Protocol: Afterwards, the medium containing compound DG-15 were added to the cultures for 24 h and the concentration range of the examined compounds was 10, 20 and 40 µM. Then 0.1 mL TBHP was used to damage cells and the plate was cultured for further 24 h. Removing the culture medium, washing twice with PBS and fixing cells with 2 mL methanol for 2 min and 1 mL paraformaldehyde for 15 min respectively and washed with fresh PBS again. Giemsa solution or DAPI was added to stain the fixed cells for 2 min and protected from light. Finally, the cells ware washed with water and were observed under inverted fluorescent microscope.

Structure (SMILES): C[C@@H]1CC[C@@]2(OC1)O[C@H]1C[C@H]3[C@@H]4CC=C5C[C@@H](O)CC[C@]5(C)[C@H]4CC[C@]3(C)[C@H]1[C@@H]2C [DG, diosgenin]
viability at 50 µM [1]: ~60%
cytotoxicity (in words) ([2]; MTT): toxic under all treated groups
EC50 [3]: > 50 µM
EC50 ([3]; listed as diosgenin): > 40 µM

Structure (SMILES): CC1CCC2(OC1)OC1CC3C4CC=C5CC(OC(=O)CNC(=O)OC(C)(C)C)CCC5(C)C4CCC3(C)C1C2C (stereo not drawn) [DG-1, 3β-(N-Boc-glycine)-diosgenin]
EC50 [3]: > 50 µM
melting point: 218.7 °C

melting point: 218.9 °C
Structure (SMILES): CC1CCC2(OC1)OC1CC3C4CC=C5CC(OC(=O)C(C)NC(=O)OC(C)(C)C)CCC5(C)C4CCC3(C)C1C2C [DG-2, 3β-(N-Boc-L-alanine)-diosgenin]

Structure (SMILES): CC1CCC2(OC1)OC1CC3C4CC=C5CC(OC(=O)CN(C)C(=O)OC(C)(C)C)CCC5(C)C4CCC3(C)C1C2C (stereo not drawn) [DG-3, 3β-(N-Boc-sarcosine)-diosgenin]
EC50 [3]: 15.2 ± 0.96 µM

Structure (SMILES): CC1CCC2(OC1)OC1CC3C4CC=C5CC(OC(=O)C6CCCN6C(=O)OC(C)(C)C)CCC5(C)C4CCC3(C)C1C2C [DG-4, 3β-(N-Boc-L-proline)-diosgenin]
EC50 [3]: 23.8 ± 6.83 µM
melting point: 183.4 °C

Structure (SMILES): CC(C)CC(NC(=O)OC(C)(C)C)C(=O)OC1CCC2(C)C(=CCC3C2CCC2(C)C3CC3OC4(CCC(C)CO4)C(C)C32)C1 [DG-5, 3β-(N-Boc-L-leucine)-diosgenin]
EC50 [3]: 9.51 ± 1.79 µM

Structure (SMILES): CCC(C)C(NC(=O)OC(C)(C)C)C(=O)OC1CCC2(C)C(=CCC3C2CCC2(C)C3CC3OC4(CCC(C)CO4)C(C)C32)C1 [DG-6, 3β-(N-Boc-L-isoleucine)-diosgenin]
EC50 [3]: 18.5 ± 1.87 µM

Structure (SMILES): CC1CCC2(OC1)OC1CC3C4CC=C5CC(OC(=O)C(Cc6ccccc6)NC(=O)OC(C)(C)C)CCC5(C)C4CCC3(C)C1C2C [DG-7, 3β-(N-Boc-L-phenylalanine)-diosgenin]
EC50 [3]: > 50 µM
melting point: 163.4 °C

Structure (SMILES): CC1CCC2(OC1)OC1CC3C4CC=C5CC(OC(=O)C(NC(=O)OCc6ccccc6)C(C)C)CCC5(C)C4CCC3(C)C1C2C [DG-8, 3β-(N-Cbz-L-valine)-diosgenin]
EC50 [3]: 38.1 ± 6.68 µM
melting point: 158.4 °C

Structure (SMILES): CC1CCC2(OC1)OC1CC3C4CC=C5CC(OC(=O)C(CCCCNC(=O)OCc6ccccc6)NC(=O)OCc6ccccc6)CCC5(C)C4CCC3(C)C1C2C [DG-9, 3β-(N-Cbz-L-lysine)-diosgenin]
EC50 [3]: 36.2 ± 8.67 µM
melting point: 135.8 °C

Structure (SMILES): CC1CCC2(OC1)OC1CC3C4CC=C5CC(OC(=O)CN)CCC5(C)C4CCC3(C)C1C2C (stereo not drawn) [DG-10, 3β-(glycine)-diosgenin]
EC50 [3]: > 50 µM
melting point: 110.8 °C

Structure (SMILES): CC1CCC2(OC1)OC1CC3C4CC=C5CC(OC(=O)C(C)N)CCC5(C)C4CCC3(C)C1C2C [DG-11, 3β-(L-alanine)-diosgenin]
EC50 [3]: > 50 µM
melting point: 219.1 °C

Structure (SMILES): CNCC(=O)OC1CCC2(C)C(=CCC3C2CCC2(C)C3CC3OC4(CCC(C)CO4)C(C)C32)C1 (stereo not drawn) [DG-12, 3β-(sarcosine)-diosgenin]
EC50 [3]: > 50 µM
melting point: 176 °C

Structure (SMILES): CC1CCC2(OC1)OC1CC3C4CC=C5CC(OC(=O)C6CCCN6)CCC5(C)C4CCC3(C)C1C2C [DG-13, 3β-(L-proline)-diosgenin]
survival rate ([2]; H9c2, 25 μM, MTT): 12%
cytotoxicity (in words) ([2]; MTT): significantly enhanced compared with diosgenin
EC50 [3]: 7.22 ± 1.58 µM

Structure (SMILES): CC(C)CC(N)C(=O)OC1CCC2(C)C(=CCC3C2CCC2(C)C3CC3OC4(CCC(C)CO4)C(C)C32)C1 [DG-14, 3β-(L-leucine)-diosgenin]
EC50 [3]: 32.6 ± 0.97 µM
melting point: 154.4 °C

Structure (SMILES): CCC(C)C(N)C(=O)OC1CCC2(C)C(=CCC3C2CCC2(C)C3CC3OC4(CCC(C)CO4)C(C)C32)C1 [DG-15, 3β-(L-isoleucine)-diosgenin]
increase of number of blood vessels ([4]; 1 mg/mL on gelatin sponge): 60.61%
increase of number of blood vessels ([4]; 4 mg/mL on gelatin sponge): 80.30%
cytotoxicity (in words) ([2]; MTT): no cytotoxicity
inhibitory effect on cells ([2]; H9c2, concentrations below 25 μM): no inhibitory effect
morphological change, DAPI staining [5]: the number of SH-SY5Y cells was increasingly larger
morphological change, Giemsa staining [5]: the typical signs for apoptosis were reduced
EC50 [3]: 6.86 ± 0.69 µM
melting point: 147.1 °C

Structure (SMILES): CC1CCC2(OC1)OC1CC3C4CC=C5CC(OC(=O)C(N)Cc6ccccc6)CCC5(C)C4CCC3(C)C1C2C [DG-16, 3β-(L-phenylalanine)-diosgenin]
EC50 [3]: 11.4 µM and 11.2 µM

Structure (SMILES): CC1CCC2(OC1)OC1CC3C4CC=C5CC(OC(=O)C(N)C(C)C)CCC5(C)C4CCC3(C)C1C2C [DG-17, 3β-(L-valine)-diosgenin]
EC50 [3]: > 50 µM
melting point: 139.1 °C

Structure (SMILES): CC1CCC2(OC1)OC1CC3C4CC=C5CC(OC(=O)C(N)CCCCN)CCC5(C)C4CCC3(C)C1C2C [DG-18, 3β-(L-lysine)-diosgenin]
cytotoxicity seen in neuroprotective activity evaluation (in words) ([3]; SH-SY5Y, compared with compounds with neutral amino acids): higher cytotoxicity
EC50 [3]: > 50 µM
melting point: 189.4 °C

Structure (SMILES): CC1=NN(c2ccccc2)C(=O)C1 [Edaravone, edaravone, reference compound]
EC50 [3]: 21.6 ± 3.04 µM
